# Test results from patent US20160038549A1, “METHOD FOR PROMOTING INSULIN SECRETION BY USING COMPOUNDS AND EXTRACTS ISOLATED FROM ANTRODIA CAMPHORATA” (priority 2014, published 2016).
# Assays:
# [1] = tested on: MIN6 cell; assay: Glucose-stimulated insulin secretion (GSIS) assay, insulin by ELISA; assay type: cell-based, mouse
# Description: In order to examine the influences of the aforementioned extracts and compounds from Antrodia camphorata for insulin secretion, GSIS assay was performed with MIN6 cell. First, MIN6 cell was incubated in 1×10^5/ml concentration in a 24-well plate and a 15% FBS DMEM medium at 37° C., 5% CO2. After cell attachment, 200 mg/1 BSA medium and the extracts and compounds from Antrodia camphorata in different concentrations were added into each well to react for 24 hours. 5.5 mM/16.7 mM glucose was further added as stimulation and then insulin was determined by ELISA. In the same time, total cellular protein in each well was extracted for a calibration by determining protein concentration with BCA assay.
# [2] = tested on: MIN6 mouse beta insulinoma cell line; assay: MTT cell viability assay with thapsigargin (TG) challenge; assay type: cell-based; conditions: then TG
# Description: MIN6 mouse beta insulinoma cell line was analyzed by MTT cell viability assay respectively. The MIN6 mouse insulinoma beta cell line is an insulinoma cell line which comes from sarcoma virus 40 transfecting non-obese diabetic mice (NOD mice) by T cells, and is a mouse insulinoma cell line having physiological characteristics of insulinoma beta cell.
# MIN6 cell line was cultured in a high glucose DMEM with 15% fetal bovine serum, 50 μmol/L mercaptoethanol, 100 U/ml penicillin, and […] streptomycin. The medium was replaced the next day.
# MIN6 cells were prepared for 1×10^5/ml cell liquid suspensions, and then the suspensions were incubated in a 96-well plate with 100 μl in each well. After cell attachment, the medium was replaced with a 0.2% serum medium and then the cells were cultured for 24 hours in order to keep the cells at rest. Then, 200 mg/L BSA medium and the extracts/compounds from Antrodia camphorata with a variety of predetermined concentrations (experimental groups) were added to react for 24 hours, respectively, and then thapsigargin was added to react for 24 hours. A control group was prepared by adding 100 μl medium and then incubating in a constant temperature incubator at 37° C., 5% CO2 for a period of time. 4 hours before the end of the incubating process, 20 μl MTT (0.5 mg/ml) was added into each well, the samples continued being incubated for 4 hours, and then crystalline dissolved fully with vibration. The absorbance (A) at wavelength of 570 nm was determined respectively by a reader. Then the cell viability was calculated by the following formula: the cell viability=(the average of A570 in the experimental group/the average of A570 in the control group)×100%.
# Referring to FIG. 1A, the extraction from ANCA-D in different concentrations (6.25, 12.5, 25, 50, 100 ng/ml) was added into cells in each group respectively to react for 24 hours. Then, thapsigargin (TG) was added to react for 24 hours and the cell viability of each group was determined after the reaction. Thapsigargin is an endoplasmic reticulum calcium pump inhibitor which can promote depletion of calcium ions from the endoplasmic reticulum and then open store-operated channels to lead the calcium ions to increase in cells. Then, insulin secretion could be inhibited.
smiles,measurement,setting,value
"COC1=C(OC)[C@H](O)[C@H](C/C=C(\C)CC/C=C(\C)CC(O)C=C(C)C)[C@@H](C)C1=O (stereo partly shown) [Antrocamol LT1, 4-hydroxy-5-[9-hydroxy-3,7,11-trimethyldodeca-2,6,10-trienyl]-2,3-dimethoxy-6-methyl-cyclohex-2-enone]",insulin secretion relative to control group,"[1]; pretreated with 500 ng/ml, higher glucose concentration 16.7 mM, FIG. 3C",about 2 times
same,insulin secretion,"[1]; pretreated with 500 ng/ml, lower glucose concentration 5.5 mM, FIG. 3C",slightly increased
same,insulin secretion,"[1]; pretreated with 1000 ng/ml and 500 ng/ml, 5.5 mM/16.7 mM glucose, FIG. 3B",slightly increasing tendency
same,insulin secretion,"[1]; pretreated with 1000 ng/ml, higher glucose concentration 16.7 mM, FIG. 3C",more obvious
same,insulin secretion,"[1]; pretreated with 1000 ng/ml, lower glucose concentration 5.5 mM, FIG. 3C",increasing tendency
same,MIN6 cell viability,"[2]; concentrations of 250, 500, and 1000 ng/ml, compared with only-TG control, FIG. 2A",increasing tendency was more significant
same,MIN6 cell viability,"[2]; pretreated with compound, compared with only-TG control, overall, FIG. 2A",could increase the MIN6 cell viability
"COC1=C(OC)[C@H](OC(C)=O)[C@H](C/C=C(\C)CC/C=C(\C)CC(O)C=C(C)C)[C@@H](C)C1=O (stereo partly shown) [Antrocamol LT2, 4-acetoxy-5-[9-hydroxy-3,7,11-trimethyldodeca-2,6,10-trienyl]-2,3-dimethoxy-6-methyl-cyclohex-2-enone]",effect of promoting insulin secretion,"[1]; pretreated with 50 ng/ml, FIG. 3B",not observed
same,insulin secretion relative to control group,"[1]; pretreated with 100 ng/ml, 5.5 mM/16.7 mM glucose, FIG. 3B",about 2 times
same,MIN6 cell viability,"[2]; concentration higher than 50 ng/ml, FIG. 2B",began to slightly decrease
same,MIN6 cell viability,"[2]; lower concentrations, especially 6.25~25 ng/ml, compared with only-TG control, FIG. 2B",significantly increase the MIN6 cell viability
"COC1=C(OC)[C@H](O)[C@H](C/C=C(\C)CC/C=C(\C)C/C=C/C(C)(C)O)[C@@H](C)C1=O [Antrocamol LT3, (4R,5R,6R)-4-hydroxy-5-[(2E,6E,9E)-11-hydroxy-3,7,11-trimethyldodeca-2,6,9-trienyl]-2,3-dimethoxy-6-methylcyclohex-2-enone]",effect for promoting insulin secretion,"[1]; high glucose, FIG. 3B",observed in high glucose
same,effect for promoting insulin secretion,"[1]; low glucose, FIG. 3B",not low glucose
same,insulin secretion,"[1]; pretreated with 250 ng/ml, 5.5 mM/16.7 mM glucose, FIG. 3B",slightly tendency for promoting insulin secretion
same,MIN6 cell viability,"[2]; concentration of 1000 ng/ml, FIG. 2C",began increasing
same,MIN6 cell viability,"[2]; concentrations lower than 500 ng/ml, compared with only-TG group, FIG. 2C",did not significantly influence the MIN6 cell viability
